From paper PMC8311653, “Design, Synthesis, In Vitro and In Vivo Characterization of Selective NKCC1 Inhibitors for the Treatment of Core Symptoms in Down Syndrome” (Journal of Medicinal Chemistry, 2021)

Assays:
[1] = In vitro mouse plasma stability; type: in vitro ADME; details: mouse plasma at 37 °C; incubated at 5 μM (final DMSO 0.1%); read-out: t1/2 plasma
WT and Ts65Dn mice = assay: Diuresis analysis in metabolic cages; details: 0.6 mg kg-1 ip; adult WT and Ts65Dn mice; vs vehicle-treated mice
Method: A veterinarian was employed to maintain the health and comfort of the animals. Mice were housed in filtered cages in a temperature-controlled room with a 12:12 h dark/light cycle and with ad libitum access to water and food. All efforts were made to minimize animal suffering and use the lowest possible number of animals required to produce statistical relevant results, according to the “3Rs concept”. In this study, we used Ts65Dn mice maintained in their original genetic background[57] by crossing (more than 40 times) Ts65Dn female to C57BL/6JEi × C3SnHeSnJ (B6EiC3) F1 males (Jackson Laboratories). Ts65Dn mice were genotyped by PCR as previously described.[58] Only males were used for behavioral experiments. Ts65Dn and controls were randomly assigned to vehicle groups (2% DMSO in saline), bumetanide (Sigma, 0.6 mg kg^–1 body weight), or 40 (0.6 mg kg^–1 body weight) and treated daily for ∼21 days by intraperitoneal injection (i.p.). On the day of behavioral testing, injection was performed 1 h before the task began.

| Compound | half-life at 5 μM [1] | diuretic effect (urine volume collected for 2 h) (WT and Ts65Dn mice) |
| --- | --- | --- |
| CN(C)S(=O)(=O)c1cc(C(=O)O)ccc1NCCCCCCCC(F)(F)F [Compound 1, 3-(-N,N-Dimethylsulfamoyl)-4-(8,8,8-trifluorooctylamino)benzoic Acid] | > 2 h | – |
| CN(C)S(=O)(=O)c1cc(C(=O)O)c(O)cc1NCCCCCCCC(F)(F)F [Compound 40, 5-(N,N-Dimethylsulfamoyl)-2-hydroxy-4-((8,8,8-trifluorooctyl)amino)benzoic Acid] | > 2 h | did not induce any significant diuresis |
| CCCCNc1cc(C(=O)O)cc(S(N)(=O)=O)c1Oc1ccccc1 [bumetanide, reference compound] | – | significantly increased the urine volume |
